Assays:
[1] = Cederqvist et al., 1994; cited from earlier work
[2] = Verification of NO donating capacity (1% sodium iodide in hot acetic acid, chemiluminescence); assay type: physicochemical
Description: Samples of eluents from the HPLC system were collected and analyzed for NO/nitrite content by injection into a reaction vessel containing 1% sodium iodide in hot acetic acid. Released nitric oxide was purged into a chemiluminescence analyzer system optimized for detection of nitric oxide by chemiluminescence reaction with ozone and determination of NO+ozone-generated excited NO2 product through counting of emitted photons.

[3] = HPLC of commercial organic nitrites diluted in deoxygenated water versus NO-saturated water; assay type: physicochemical; settings: for size of HPLC peak (UV max 225 nm), dilution in de-aerated NO saturated solutions: Novapak C8 or CN column
Experimental: Analysis of reaction mixtures and commercial organic nitrites and nitrates was made by high performance liquid chromatography (HPLC) using reverse phase chromatography on C8, C18 or CN columns (Waters Inc. NOVAPAK™ 4 μm particle size 8×100 mm radial compression columns) by means of two LDC Constametric pumps delivering a constant total flow of 1 ml per min, controlled by a computerized gradient control system generating a linear gradient of 0-100% methanol (elution solvent B) in 33 min, starting 1 min after injecting sample in the aqueous initial elution solvent (solvent A) which contained 5 mM ammonium formiate at pH 6. Separation of eluted compounds was determined by an LDC Spectromonitor variable UV monitor set at 210 nm, followed by a Pharmacia Wavescan wavelength scanning detector producing UV scans between 190 and 370 nm at 4 s intervals which were stored on a computer and analyzed after each HPLC run. The output from the LDC Spectromonitor was continuously recorded on a strip chart recorder.
HPLC: On all three Novapak columns and on the Thermo column a single peak of product, from the reaction between propanol and NO gas, eluted at a gradient concentration of 70-80% methanol. In the NOVAPAK C18 system this corresponded to an elution time of approximately 28 min (FIG. 12, panel C). […] When a standard sample of propyl nitrite (Karl Industries Inc., Aurora, Ohio, USA) diluted in a gas-type cylinder in deoxygenated (10 min He purging) water at 1:1000 was injected, a small peak at 28 min was obtained (FIG. 12, panel A), having an identical UV absorbance max at 225 nm. […] Similar results were obtained on the C8 and CN columns, a single retained peak was obtained from the reaction mixture consisting of propanol and NO, although at somewhat shorter retention times, compared with the C18 system.
Commercial samples of ethyl nitrite, butyl nitrite, and isobutyl nitrite (Sigma-Aldrich) were diluted anaerobically as above and injected onto the HPLC system, using either the Novapak C8 or CN column. Peaks with UV absorbance maxima of approximately 225 nm were obtained in all the samples, but at different retention times corresponding to the expected differences judged from the lipophilic chain length of the compounds. All these peaks were larger if the dilution of the organonitrite had been done in de-aerated NO saturated solutions. The respective peaks with UV max at 225 nm coincided with single similar peaks obtained by treating the corresponding alcohol (ethanol, butanol, isobutanol) with NO gas. This was taken as evidence that the corresponding organic mononitrite had formed.

[4] = Intravenous infusion of NO dissolved in liquid medium in L-NAME pre-treated rabbit; assay type: in vivo
Experimental: Experiments were approved by the local ethics committee on animal experimentation. A male New Zealand white rabbit was anesthetised, prepared and examined as in the protocol presented in Example 2. The rabbit was pre-treated with L-NAME (30 mg kg^−1) and received one infusion with NO-gas dissolved in normal saline and one with NO-gas dissolved in lipid emulsion ([…]®, Fresenius Kabi) through the catheter in the jugular vein without carrier flow. The infusion rate was for both liquids 0.5 ml kg^−1 min^−1. There was a recovery period between the two infusions for about 200 min.
The infusion liquids were created the same way. First the liquid was de-aerated for 20 min, in a gas-tight glass chamber with a rubber membrane with an inert gas; in this case helium gas, but nitrogen, argon etc could also be used. After this no oxygen were allowed to enter the liquid throughout the following procedure. The liquid was then purged with pure NO of a few minutes. The liquid was then collected through the rubber membrane in a gas-tight syringe with needle and from this syringe infused by means of syringe pump (864 Syringe Pump, Univentor LTD., Zejtun, Malta) in the jugular vein catheter.

venous gas embolism = test: Treatment of venous gas embolism in an animal with inhibited NO production; assay type: in vivo
Description: The beneficial effects may be induction of vasodilation in the pulmonary vasculature, inhibition of aggregation of trombocytes and/or minor vasodilation in the whole or parts of the systemic circulation, for example in the coronary circulation.

[5] = before 30 mg kg^−1 throughout 10 min

## O=[N+]([O-])OCC(CO[N+](=O)[O-])O[N+](=O)[O-] [Nitroglycerin, glyceryl trinitrate]
[1]
  generation of NO in vivo: generate NO
[2]
  release of NO by mild reduction treatment: did not yield a release of NO

## CC(C)CCON=O [isoamyl nitrite]
[1]
  generation of NO in vivo: generate NO

## CC(C)CON=O [isobutyl nitrite]
[1]
  generation of NO in vivo: generate NO
[3]
  size of HPLC peak (UV max 225 nm), dilution in de-aerated NO saturated solutions: larger

## CCCON=O [propyl nitrite]
[3]; dilution 1:1000, Novapak C18
  size of 28 min HPLC peak, dilution in water saturated with NO gas vs deoxygenated water: 5-10 times

## CC(C)CO[N+](=O)[O-] [isobutyl nitrate]
[1]
  generation of NO in vivo: generate NO

## COC(=O)[C@@H](N)CCCNC(=N)N[N+](=O)[O-] [L-NAME, N^G-nitro-L-arginine methyl ester]
[4]; 30 mg kg^−1 throughout 10 min
  exhaled nitric oxide after L-NAME infusion: < 1 ppb
  heart rate (HR) after L-NAME infusion: 258 beats min^−1
  systemic mean arterial blood pressure (MAP) after L-NAME infusion: 128 cmH2O
[4]; L-NAME 30 mg kg^−1 throughout 10 min
  End-tidal CO2 and the relevant blood gas parameters: normal
[4]; [5]
  exhaled nitric oxide before L-NAME infusion: 19 ppb
  heart rate (HR) before L-NAME infusion: 274 beats min^−1
  systemic mean arterial blood pressure (MAP) before L-NAME infusion: 103 cmH2O

## CCON=O [ethyl nitrite]
[1]
  generation of NO in vivo: generate NO
[3]
  size of HPLC peak (UV max 225 nm), dilution in de-aerated NO saturated solutions: larger

## CCCCON=O [butyl nitrite]
[1]
  generation of NO in vivo: generate NO
[3]
  size of HPLC peak (UV max 225 nm), dilution in de-aerated NO saturated solutions: larger

## [N]=O [inhaled nitric oxide, nitric oxide]
Venous gas embolism
  treatment of venous gas embolism: impossible to treat

Source: patent US8030511B2, “Method for the manufacture of therapeutic compounds and compositions, compounds and compositions produced therewith, and their use” (priority 2006, dated 2011)
